These results are taken from patent US20110269625A1, “Synergistic insecticidal mixtures” (Bayer CropScience AG, priority 2008, published 2011).

What all share (format): in vivo
The subject of test [1] is cotton aphid (Aphis gossypii). Put plainly: Aphis gossypii test (spray treatment of infested cotton plants). From the text: (§1) The expected action for a given combination of two active ingredients can be calculated according to S. R. Colby, Weeds 15 (1967), 20-22) as follows:
(§2) • X is the kill rate, expressed in % of the untreated control, using the active ingredient A at an application rate of m g/ha or in a concentration of m ppm, • Y is the kill rate, expressed in % of the untreated control, using the active ingredient B at an application rate of n g/ha or in a concentration of n ppm, • E is the kill rate, expressed in % of the untreated control, using the active ingredients A and B at application rates of m and n g/ha or in a concentration of m and n ppm, then is
(§3) If the actual insecticidal kill rate is greater than that calculated, the kill rate of the combination is superadditive, i.e. there is a synergistic effect. In this case, the actually observed kill rate must be greater than the value calculated from the above formula for the expected kill rate (E).
Solvent: 7 parts by weight of dimethylformamide Emulsifier: 2 parts by weight of alkylaryl polyglycol ether […]
(§4) After the desired time, the kill rate in % is determined 100% means that all of the aphids have been killed; 0% means that none of the aphids have been killed. The kill rates determined are entered into Colby's formula.

Test [2] relates to larvae of the mustard beetle (Phaedon cochleariae). Put plainly: Phaedon cochleariae larvae test (sprayed cabbage leaves populated with larvae). Particulars: 4 ppm, spray.
From the text: as §1, §2, §3
Solvent: 7 parts by weight of dimethylformamide Emulsifier: 2 parts by weight of alkyl aryl polyglycol ether
(§5) To produce an appropriate active ingredient formulation, 1 part by weight of active ingredient is mixed with the stated amounts of solvent and emulsifier, and the concentrate is diluted with emulsifier-containing water to the desired concentration.
Cabbage leaves (Brassica oleracea) are treated by spraying with the active ingredient formulation of the desired concentration and populated with larvae of the mustard beetle (Phaedon cochleariae) while the leaves are still moist.
After the desired time, the kill rate in % is determined 100% means that all beetle larvae have been killed; 0% means that none of the beetle larvae have been killed. The kill rates determined are entered into Colby's formula.

In test [3] the test system is green peach aphid (Myzus persicae). Put plainly: Myzus persicae test (spray treatment of infested cabbage leaves).
From the text: as §1, §2, §3
Solvent: 7 parts by weight of dimethylformamide Emulsifier: 2 parts by weight of alkylaryl polyglycol ether
as §5
Cabbage leaves (Brassica oleracea) severely infested by the green peach aphid (Myzus persicae) are treated by spraying with the active ingredient formulation in the desired concentration.
as §4

On to `N#C/N=C1\SCCN1Cc1ccc(Cl)nc1` [thiacloprid], for which the “Kill rate in % after 6 days” value in test [1] (0.8 ppm) came to 25%; in test [2], 0%. The “Kill rate in % after 1 d” value in test [3] (0.8 ppm) is listed as 25%.
For `CC1(C)[C@H](C=C(Cl)Cl)[C@H]1C(=O)OCc1c(F)c(F)cc(F)c1F` [transfluthrin], the “Kill rate in % after 6 days” value in test [1] (0.16 ppm), in test [2] and in test [3] (0.8 ppm) was 0% each time. Also, the “Kill rate in % after 1 d” value in test [3] (0.16 ppm) is listed as 0%.
On to `C/C(=N\C#N)N(C)Cc1ccc(Cl)nc1` [acetamiprid], for which the “Kill rate in % after 6 days” value in test [2] and in test [3] (0.8 ppm) was 0% each time.
